From patent publication US9499868B2, “Determination of single nucleotide polymorphisms useful to predict response for glatiramer acetate” (TEVA PHARMACEUTICAL INDUSTRIES, LTD., priority 2011, dated 2016)
Where two headings read alike, the source gives them in different places.

Assays:
[1] = system: Relapsing-remitting multiple sclerosis patients (FORTE cohort); test: Annualized relapse rate in FORTE cohort patients genetically predicted as responders/non-responders by predictive models; type: in vivo, human
Method: Relapsing-remitting multiple sclerosis patients were treated with either 20 mg GA or 40 mg GA daily in the Teva FORTE clinical trial (www.medicalnewstoday.com/articles/48863.php). Blood samples were drawn from each subject that signed an informed consent for the pharmacogenetic study and analyzed as described below.
A clinical relapse was defined as the appearance of one or more new neurological abnormalities or the reappearance of one or more previously observed neurological abnormalities.
To find genotypic profiles that discriminate responders (R) from the non-responders (NR) to the treatment, we used a backward stepwise logistic regression procedure on the SNPs that emerged significant using the narrow definition (e.g., at p-value=10^−4 or lower). Other models were generated based on combinatorial optimization heuristics. Once a pool of models was created, selected models were chosen based on the low value of Akaike's Information Criterion (AIC) and low number SNPs in the model. The model chosen in the previous step went through “Leave one out” cross validation, searching for high values of the Area Under the ROC curve.
The response probability p(Response) of a specific patient was calculated according to the tables and formulas indicated for each specific model.
Patients with p(Response) above 0.5 were predicted to be responders and patients with p(Response) below 0.5 were predicted to be non-responders. When the model was retrospectively applied to the full cohort of 599 FORTE patients, we observed that the annualized relapse rate (ARR) in patients genetically predicted as responders was reduced by 62% compared to all patients, and by 76% compared to non-responders (p<0.0001). When we applied the model retrospectively to a second independent cohort of 79 patients, the model could identify subpopulations genetically predicted to be responders and non-responders with respectively lower (for responders) and higher (for non-responders) relapse rate. In the placebo-treated arm no specific pattern could be observed.
The models were retrospectively applied to the full cohort of 599 FORTE patients using different predictive thresholds. The ratios between the Annualized Relapse Rate (ARR) of genetically predicted responder patients (R) compared to the average ARR in genetically predicted non-responder patients (NR), and the ratios between the average ARE observed in the genetically predicted responder patients (R) compared to average ARR in the whole study population (All), according to each predictive threshold or two predictive thresholds, are presented in table 37. […]

[2] = system: multiple sclerosis patients (European/Canadian study); test: Annualized relapse rate in European/Canadian study patients genetically predicted as responders/non-responders by FM1 model; type: in vivo, human; conditions: 0.8 threshold
From the text: In comparison, the average ARR in either placebo-treated patients or non treated patients (from European/Canadian study and CORAL, respectively) genetically predicted as responders was −7% and 26% lower, respectively, than in patients predicted as Non-Responders and 10% and 11% lower than in the whole study population. The reduction in average ARR by GA over placebo-treated patients in the responders population in the European/Canadian study was 79%.

RRMS subjects = conditions: cited from earlier work
RRMS patients = conditions: cited from earlier work
[3] = FM1 model, 0.8 threshold, FORTE
[4] = model GM2068, FORTE cohort, whole study population (All)
[5] = model GM2090, FORTE cohort, whole study population (All)
[6] = model GM2094, FORTE cohort, whole study population (All)
[7] = model GM2277, FORTE cohort, whole study population (All)

Substance: Glatiramer acetate [GA]
- average ARR in GA-treated predicted responders lower than in patients predicted as non-responders [1, 3]: 76%
- average ARR in GA-treated predicted responders lower than in the whole study population [1, 3]: 64%
- reduction of annualized relapse rate (ARR) in genetically predicted responders compared to all patients ([1]; FM1 model, p(Response) threshold 0.5, full cohort of 599 FORTE patients): 62%
- reduction of annualized relapse rate (ARR) in genetically predicted responders compared to non-responders ([1]; FM1 model, p(Response) threshold 0.5, full cohort of 599 FORTE patients, p<0.0001): 76%
- ARR Vs. all ([1]; model FM1, response prediction All): 100%
- ARR ([1]; model FM1, response prediction All (whole FORTE study population, threshold NA)): 0.241
- ARR Vs. all ([1]; model FM1a, response prediction All): 100%
- ARR ([1]; model FM1a, response prediction All (whole FORTE study population, threshold NA)): 0.245
- ARR Vs. all ([1]; model FM2, response prediction All): 100%
- ARR ([1]; model FM2, response prediction All (whole FORTE study population, threshold NA)): 0.245
- ARR Vs. all ([1]; model GM1003, response prediction All): 100%
- ARR ([1]; model GM1003, response prediction All (whole FORTE study population, threshold NA)): 0.26
- ARR Vs. all ([1]; model GM1006, whole study population (All)): 100%
- ARR ([1]; model GM1006, whole study population (All), FORTE cohort, 599 patients): 0.253
- ARR Vs. all ([1]; model GM1011, whole study population (All)): 100%
- ARR ([1]; model GM1011, whole study population (All), FORTE cohort, 599 patients): 0.256
- ARR Vs. all ([1]; model GM1012, whole study population (All)): 100%
- ARR ([1]; model GM1012, whole study population (All), FORTE cohort, 599 patients): 0.251
- ARR Vs. all ([1]; model GM2004, whole study population (All)): 100%
- ARR ([1]; model GM2004, whole study population (All), FORTE cohort, 599 patients): 0.255
- ARR [1, 4]: 0.256
- ARR Vs. all [1, 4]: 100%
- ARR [1, 5]: 0.254
- ARR Vs. all [1, 5]: 100%
- ARR [1, 6]: 0.251
- ARR Vs. all [1, 6]: 100%
- ARR [1, 7]: 0.258
- ARR Vs. all [1, 7]: 100%
- ARR ([1]; model GM2338, response prediction All (whole study population), threshold NA, FORTE cohort): 0.251
- ARR Vs. all ([1]; model GM2338, response prediction All, threshold NA, FORTE cohort): 100%
- ARR ([1]; model GM3102, response prediction All (whole study population), threshold NA, FORTE cohort): 0.263
- ARR Vs. all ([1]; model GM3102, response prediction All, threshold NA, FORTE cohort): 100%
- ARR ([1]; model GM3150, response prediction All (whole study population), threshold NA, FORTE cohort): 0.26
- ARR Vs. all ([1]; model GM3150, response prediction All, threshold NA, FORTE cohort): 100%
- ARR ([1]; model GM3332, response prediction All (whole study population), threshold NA, FORTE cohort): 0.262
- ARR Vs. all ([1]; model GM3332, response prediction All, threshold NA, FORTE cohort): 100%
- average ARR in GA-treated predicted responders lower than in patients predicted as non-responders [2]: 81%
- average ARR in GA-treated predicted responders lower than in the whole study population [2]: 77%
- reduction in average ARR by GA over placebo-treated patients in the responders population [2]: 79%
- tolerability (RRMS subjects; daily standard dose of 20 mg): generally well tolerated
- reduction of relapse rate compared with placebo (RRMS subjects; largest controlled study, GA 20 mg, RRMS): 32%
- relapse rate (RRMS subjects; largest controlled study, under GA 20 mg (1.98 under placebo)): 1.34
- median cumulative number of Gd-enhancing lesions (RRMS subjects; over 9 months of treatment, 20 mg group (17 under placebo)): 11 lesions
- response rate (RRMS patients; DRB1*1501 carriers): 81.8%
- response rate (RRMS patients; non-carriers of DRB1*1501): 39.4%
- response rate (RRMS patients; whole study population): 50%
